Experimental data reported in article PMC9106491, “In Vitro Antioxidant, Anti-Inflammatory, and Digestive Enzymes Inhibition Activities of Hydro-Ethanolic Leaf and Bark Extracts of Psychotria densinervia (K. Krause) Verdc” (Advances in Pharmacological and Pharmaceutical Sciences, 2022).
Values joined by “and” are separate entries in the source; they are usually repeats but may differ in a detail not shown here. Equal values may be shown once.

Tests used:
[1] = DPPH free radical scavenging; conditions: 30 mins, 517 nm
Description: The DPPH scavenging assay was conducted by the method of Sanchez-Moreno et al. with some modifications. DPPH (0.1 mM) stock solution was diluted in methanol, and the absorbance was adjusted to 1.5 at 517 nm wavelength. […] extracts (500 μl) at different concentrations (15.62, 31.25, 62.5, and 250 μg/ml) were mixed with 2000 μl of DPPH solution and read with the aid of a spectrophotometer at 517 nm after 30 mins of incubation in the dark.

ABTS radical scavenging = conditions: 15 mins, 734 nm
Description: ABTS scavenging activity was evaluated by the discoloration of the cationic radical ABTS^∗^+, as per the technique described by Arnao et al. with some modifications. Briefly, the ABTS reagent was obtained by mixing an ethanolic solution of ABTS (7.4 mM) and an aqueous solution of potassium persulfate (2.6 mM). After mixing, the solution was incubated in the dark for 24 hours. The ABTS solution obtained was diluted until an absorbance of 1.5 was obtained at 734 nm. Two hundred microliters of each extract or catechin at different concentrations (15.62, 31.25, 62.5, and 250 μg/ml) was added to 1800 μl of the ABTS solution prepared above. The mixture was incubated in the dark for 15 mins, and the absorbance was read with a spectrophotometer at 734 nm against the blank. Catechin was used as the standard. […] The IC50 was calculated as in DPPH.

[2] = biological target: T1, porcine pancreatic lipase (Sus scrofa, UniProt P00591); test: Pancreatic lipase inhibition; format: biochemical; conditions: read-out: inhibition percentage of lipase
T1 construct: purchased Sigma-Alrich Chemical Co
T1 sequence (P00591 1-450): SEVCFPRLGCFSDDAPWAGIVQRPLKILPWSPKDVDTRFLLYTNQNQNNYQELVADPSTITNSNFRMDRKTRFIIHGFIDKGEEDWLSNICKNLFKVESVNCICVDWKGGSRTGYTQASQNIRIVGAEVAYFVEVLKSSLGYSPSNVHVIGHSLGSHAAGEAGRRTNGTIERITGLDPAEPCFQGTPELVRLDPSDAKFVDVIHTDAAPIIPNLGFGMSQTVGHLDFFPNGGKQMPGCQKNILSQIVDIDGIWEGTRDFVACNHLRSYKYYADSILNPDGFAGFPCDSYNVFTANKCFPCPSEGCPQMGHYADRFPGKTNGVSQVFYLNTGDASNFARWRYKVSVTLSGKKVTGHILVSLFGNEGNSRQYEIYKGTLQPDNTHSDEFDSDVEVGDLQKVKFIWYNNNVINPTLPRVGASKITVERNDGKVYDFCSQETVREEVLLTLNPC
Description: The method described by Kim et al. was used in this assay. […] The mixture was then incubated at 37°C for 37 mins. The reaction was started by the addition of 10 μl of p-nitrophenyl butyrate substrate (10 mM p-NPB) in dimethylformamide.

[3] = biological target: T2, pancreatic cholesterol esterase (Sus scrofa, UniProt A0A286ZKB1); conditions: read-out: Cholesterol esterase IC50; p-NPB substrate
T2 sequence (A0A286ZKB1 95-682): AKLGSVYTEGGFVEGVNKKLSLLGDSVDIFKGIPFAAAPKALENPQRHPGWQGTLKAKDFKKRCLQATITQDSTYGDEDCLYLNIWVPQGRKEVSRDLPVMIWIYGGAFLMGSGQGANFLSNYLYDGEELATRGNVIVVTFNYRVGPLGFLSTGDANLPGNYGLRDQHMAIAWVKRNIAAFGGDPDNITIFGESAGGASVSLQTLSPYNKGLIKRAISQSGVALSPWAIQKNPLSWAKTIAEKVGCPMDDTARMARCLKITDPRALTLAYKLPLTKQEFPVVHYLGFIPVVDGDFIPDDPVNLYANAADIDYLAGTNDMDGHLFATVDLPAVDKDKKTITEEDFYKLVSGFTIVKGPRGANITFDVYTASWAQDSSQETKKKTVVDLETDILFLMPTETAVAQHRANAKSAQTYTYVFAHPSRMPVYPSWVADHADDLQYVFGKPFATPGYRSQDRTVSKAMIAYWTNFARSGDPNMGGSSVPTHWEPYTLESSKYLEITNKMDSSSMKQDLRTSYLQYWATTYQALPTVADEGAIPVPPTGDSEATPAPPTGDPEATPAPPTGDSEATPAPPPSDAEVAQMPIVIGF
Description: Briefly, 50 μl of the extracts at different concentrations (3.12, 6.25, 12.5, 25, 50, 100, and 200 μg/ml) was added to 50 μl of 5.16 mM taurocholic acid and 50 μl of an aqueous solution of cholesterol esterase and incubated for 10 mins at 25°C. Then, 50 μl of p-nitrophenyl butyrate substrate (0.2 mM) was added to the mixture and incubated for 5 mins at 25°C. Cholesterol esterase inhibitory activity was determined by measuring the hydrolysis of p-NPB to p-nitrophenol at 405 nm using an ELISA microplate reader (BK-EL10 C).
Anticholesterol esterase activity is given as IC50 values (the concentrations that inhibited 50% of the hydrolysis of pNPB to p-nitrophenol).

With `O=C1O[C@H]([C@@H](O)CO)C(O)=C1O` [ascorbic acid] as the compound, how does the “DPPH IC50” value [1] read?
Its value is 71.78 ± 6.37 µg/mL and 71.98 ± 1.21 µg/mL.

With `O.Oc1cc(O)c2c(c1)O[C@H](c1ccc(O)c(O)c1)[C@@H](O)C2` [catechin] as the compound, how does the “ABTS IC50” value (ABTS radical scavenging) read?
The value was 33.48 ± 2.02 µg/mL.

For `CCCCCCCCCCC[C@@H](C[C@@H]1OC(=O)[C@H]1CCCCCC)OC(=O)[C@H](CC(C)C)NC=O` [orlistat], which inhibition at 200 µg/mL [2] is on record?
Its inhibition at 200 µg/mL is 97.83 ± 0.34%.

What about the IC50 [3] of the same compound?
The IC50 was 110 µM.
